Results: US9278981B2, “Compounds and compositions for inhibiting the activity of ABL1, ABL2 and BCR-ABL1” (Novartis AG, priority 2012, dated 2016)

Columns and labels:
[1] = target: T1, ABL1 (64-515) (Homo sapiens (Human), UniProt P00519); test: Radio ABL1 (64-515) assay (radiometric filter-binding); type: biochemical
[2] = target: T1, ABL1 (64-515); test: Caliper ABL1 (64-515) assay (microfluidic mobility shift); type: biochemical
[3] = tested on: Ba/F3-BCR-ABL1-WT cells; test: cells; details: Mus musculus, 48 h, read-out: Ba/F3-BCR-ABL1-WT IC50 [μM]
Text: To generate Ba/F3 cells that depend on BCR-ABL1 expression for growth and survival, Ba/F3 cells were engineered to express BCR-ABL1 using retroviral transduction with a MSCV based retroviral vector containing a p210 BCR-ABL1 expression cassette. […] These cells are referred to as Ba/F3-BCR-ABL-WT.
Ba/F3-BCR-ABL1-WT cells and Ba/F3-BCR-ABL1-T315I cells were maintained in RPMI1640 media with L-glutamine, HEPES (Lonza) and 10% FBS (Gibco).
For each cell line, the cell density was adjusted to 50 000 cells/mL and 50 μL (2500 cells) added per well of a 384-well assay plate.
Test compounds were resuspended in DMSO at a concentration of 10 mM. A serial three-fold dilution of each compound with DMSO was performed in 384-well plates using the Janus Liquid Dispenser (PerkinElmer). Compound was delivered to the assay plates containing 2500 cells in a 50 μL volume via Acoustic delivery from an ATS-100 (EDC).
Cells were incubated at 37° C. in a humidified environment with 5% carbon dioxide for 48 hours. Britelite plus solution (Perkin Elmer) was prepared according to the manufacturer's instructions and 25 μL added to each well of the assay plate. […] The degree of luminescence correlates with the number of cells in each well. The effect of each inhibitor concentration can therefore be calculated and IC50 values generated.

[4] = tested on: BCR-ABL1+KCL-22 cells; test: Acquired resistance in BCR-ABL1+KCL-22 cells in vitro; type: cell-based; details: cells treated every 3-4 days

T1 sequence (P00519 64-515): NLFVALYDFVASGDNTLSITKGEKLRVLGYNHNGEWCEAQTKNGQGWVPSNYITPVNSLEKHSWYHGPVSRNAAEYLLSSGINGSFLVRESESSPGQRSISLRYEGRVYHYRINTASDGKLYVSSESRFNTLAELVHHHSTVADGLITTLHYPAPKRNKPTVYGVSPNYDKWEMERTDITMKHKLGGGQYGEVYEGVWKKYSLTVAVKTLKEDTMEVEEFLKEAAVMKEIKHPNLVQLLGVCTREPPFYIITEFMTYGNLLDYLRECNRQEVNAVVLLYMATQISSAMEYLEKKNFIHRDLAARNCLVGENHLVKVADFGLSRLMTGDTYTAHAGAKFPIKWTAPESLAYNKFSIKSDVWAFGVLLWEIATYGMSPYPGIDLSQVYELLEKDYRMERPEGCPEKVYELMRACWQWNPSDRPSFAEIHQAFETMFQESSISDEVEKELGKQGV

| SMILES | IC50 [1] | IC50 [2] | IC50 [3] | time until acquired resistance [4] |
| --- | --- | --- | --- | --- |
| O=C(Nc1ccc(S(F)(F)(F)(F)F)cc1)c1cnc(N2CC[C@@H](O)C2)c(-c2cncnc2)c1 [Example 216, (R)-6-(3-Hydroxypyrrolidin-1-yl)-5-(pyrimidin-5-yl)-N-(4-(pentafluorosulfanyl)phenyl)nicotinamide] | 3 nM | 0.7 nM | 0.0074 µM |  |
| N[C@H]1CN(c2ccc(C(=O)Nc3ccc(OC(F)(F)Cl)cc3)cc2-c2cncc(F)c2)C[C@@H]1O [Example 285, 4-((3S,4S)-3-Amino-4-hydroxypyrrolidin-1-yl)-N-(4-(chlorodifluoromethoxy)phenyl)-3-(5-fluoropyridin-3-yl)benzamide] | 1 nM | 0.6 nM | 0.0053 µM |  |
| O=C(Nc1ccc(SC(F)(F)Cl)cc1)c1cnc(N2CC[C@@H](O)C2)c(-c2cncc(F)c2)c1 [Example 218, (R)—N-(4-((Chlorodifluoromethyl)thio)phenyl)-5′-fluoro-2-(3-hydroxypyrrolidin-1-yl)-[3,3′-bipyridine]-5-carboxamide] | 3 nM | 0.6 nM | 0.0009 µM |  |
| N#Cc1cncc(-c2cc(C(=O)Nc3ccc(OC(F)(F)Cl)cc3)cnc2N2C[C@@H](O)[C@@H](O)C2)c1 [Example 268] | 0.5 nM | 0.4 nM | 0.0032 µM |  |
| Cc1cn(-c2cc(NC(=O)c3ccc(C)c(Nc4nccc(-c5cccnc5)n4)c3)cc(C(F)(F)F)c2)cn1 [nilotinib] |  |  |  | 18 to 21 days |
